Reference: US20230293519A1, “INTEGRIN INHIBITORS AND USES THEREOF IN COMBINATION WITH OTHER AGENTS” (Pliant Therapeutics, Inc., priority 2021, published 2023)

Key:
SMAD3 phosphorylation = test: Murine bleomycin model: SMAD3 phosphorylation; assay type: in vivo, mouse; settings: bleomycin mice
Method: Mice (C57BL/6) were divided into healthy (n=15), vehicle-treated (n=15), and test article-treated (n=15 per dose) groups. Mice in the vehicle and test article-treated groups were administered 3 U/kg of bleomycin (Teva Pharmaceuticals; North Wales, PA) via oropharyngeal aspiration while under anesthesia on day 0. Healthy animals were administered water in a similar fashion. Starting on day 7, mice in the control group were administered PBS vehicle, 130 uL, by oral gavage, BID for 14 days. Also starting on day 7, mice in the test group were administered compound 5 in PBS by oral gavage, BID for 14 days, at relative dosages of 1x, 2.5x and 5x. […] From day 14 through day 21, 9 of the 15 mice were administered ^2H2O for labeling. All mice were sacrificed on day 21 and tissues were collected. Samples were prepared for analysis either directly from lung tissue, or by bronchoalveolar lavage, which washes out the bronchiolar and alveolar space with saline to produce a bronchoalveolar lavage fluid (BALF) in which 80-90% of cells are alveolar macrophages.
FIG. 4C is a graph showing that compared to the healthy mice, lung tissue in the vehicle-treated mice experienced a substantial increase in SMAD3 phosphorylation, which is a measure of TGF-β signaling-related kinase activity. […]

[1] = SAD and MAD first-in-human studies, plasma LC-MS/MS; assay type: in vivo; settings: healthy subjects
Method: Healthy human subjects (N=85) were selected for single ascending dose (SAD) and multiple ascending dose (MAD) first-in-human studies. A solution for oral administration was prepared, containing 10 mg/mL of compound 5 in a 50:50 mixture of ORA-SWEET® SF (PERRIGO®, Allegan, Michigan) and sterile water for irrigation. Sufficient solution was administered orally to the subjects to provide between 15 mg/dose and 75 mg/dose of compound 5 in the SAD study and between 10 mg/dose and 40 mg/dose of compound 5 in the MAD study. Concentrations of compound 5 were measured in the subjects by obtaining a sample of plasma from each subject at desired intervals, and subjecting the plasma to liquid chromatography-mass spectrometry-mass spectrometry (LC-MS/MS), with quantification using a calibration curve determined from a range of solutions at standardized concentrations. The lower limit of quantitation (LLOQ) of the assay was 1 ng/mL and the calibration curve range was 1 to 500 ng/mL.

COL1A1 expression = test: PCLS from human IPF lung tissue, 7 days: COL1A1 expression; assay type: cell-based
Method: PCLS from 5-7 idopathic pulmonary fibrosis (IPF) lung tissue samples were cultured for seven days with one of: DMSO; Compound 5 at 200 nM; nintedanib at 75 nM; pirfenidone at 50 µm; a combination of Compound 5 at 200 nM and nintedanib at 75 nM; a combination of Compound 5 at 200 nM and pirfenidone at 50 µm; or an Alk5 inhibitor at 1 µm. […] FIG. 6D is a bar graph showing relative expression of COL1A1 in precision cut lung slices (PCLS) from idopathic pulmonary fibrosis (IPF) lung tissue upon exposure to Comopund 5, clinical standard of care compounds nintedanib (Nin) and pirfenidone (Pirf), and an ALK5 inhibitor, all versus DMSO control.
PCLS from a single IPF lung tissue sample were cultured for seven days with Compound 5 at concentrations of 200 pM, 2 nM, 60 nM, 200 nM, and 1 µM, along with 0.1% DMSO control and an Alk5 inhibitor at 1 µM. […] COL1A1 expression is also graphed for the PCLS in the presence of 0.1% DMSO control, and an Alk5 inhibitor at 1 µM.

lung Col1a1 expression = test: Precision cut lung slices of mice under chronic bleomycin exposure (vs pirfenidone and nintedanib); assay type: cell-based, mouse; settings: slices cultured 7 days; nintedanib and pirfenidone at 10x therapeutic concentrations
Method: Mice (C57BL/6) were administered 3 U/kg of bleomycin (Teva Pharmaceuticals; North Wales, PA) on Day 0 and 1 U/kg of bleomycin on days 14, 28, 42 and 56 via oropharyngeal aspiration while under anesthesia. At day 70, 14 days following the final bleomycin insult, precision cut lung slices were obtained. Following euthanization, 2% low gelling temp agarose was injected into the mouse lungs via the trachea. […] The lobes were then subjected to precision slicing to obtain samples for culture using a microtome (Compresstome VF-300-0Z, Precisionary; Greenville, NC). Individual slices were distributed in a multiwell culture plate and cultured for 7 days under control (DMSO) and test compound conditions. The viability of the slices over the course of culturing was confirmed by WST-1 assay of mitochondrial activity.
During the culture period, slices in the control group were treated with DMSO and slices in the test group were treated with a DMSO solution of one of: compound 5; nintedanib; pirfenidone; a combination of nintedanib and compound 5; a combination of pirfenidone and compound 5; or the small molecule ALK5 inhibitor. Compound 5 was […] effective to equal or exceed its respective IC50 values at αvβ6 and αvβ1. The small molecule ALK5 inhibitor was analyzed at 10x its reported IC50 value. Nintendanib and pirfenidone were analyzed at concentrations 10x their reported therapeutic concentrations.

[2] = tested on: normal human bronchial epithelial cells; test: LAP adhesion assay (xCELLigence cell index), bronchial epithelial cells; assay type: cell-based; settings: normal bronchial epithelial cells (express αvβ6)
Description: Two latency associated peptide (LAP) adhesion binding assays were devised using primary human lung cells, including normal (healthy) human bronchial epithelial cells and human lung fibroblasts (healthy and IPF).
Human bronchial epithelial cells are known to express αvβ6 integrin in culture.

With `COCCN(CCCCc1ccc2c(n1)NCCC2)CC[C@H](Nc1ncnc2ccccc12)C(=O)O` [Compound 5, (S)-4-((2-methoxyethyl)(4-(5,6,7,8-tetrahydro-1,8-naphthyridin-2-yl)butyl)amino)-2-(quinazolin-4-ylamino)butanoic acid] the “pSMAD3 levels in the lung, % of the untreated levels” value (SMAD3 phosphorylation) was “approximately 50%”, the “SMAD3 phosphorylation in lung tissue vs vehicle” value (SMAD3 phosphorylation; 1x, 2.5x, 5x dose PO BID 14 days from day 7) was “substantial, statistically significant dose-dependent reductions” and the “oral bioavailability and pharmacokinetics” value [1] was “good oral bioavailability and pharmacokinetics”. The “reduction of COL1A1 expression” value (COL1A1 expression; Compound 5 200 nM, nintedanib 75 nM, pirfenidone 50 µM, 5-7 IPF lungs) was 43%, the “concentration with significant reduction of COL1A1 expression” value (COL1A1 expression; single IPF lung, 200 pM to 1 µM tested) was no less than 2 nM and the “reduction in COL1A1 expression at concentrations with significant effect” value (COL1A1 expression; single IPF lung, Compound 5 ≥ 2 nM) was no less than 47%. The “lung Col1a1 expression vs DMSO control” value (lung Col1a1 expression) was “substantial, statistically significant” and the “inhibition of cell adhesion to LAP” value [2] was “substantially inhibited”.
